Test results as given in patent US12371427B2, “Polymorphic forms of a substituted-quinoxaline-type bridged-piperidine compound” (Purdue Pharma L.P., priority 2019, dated 2025).
Like-named read-outs stand apart in the source and are kept apart here. One block for each molecule: values may come before it.

Assays:
Assay type in all cases: physicochemical
[1] = Relative stability (ripening) study of crystal forms at various water activity levels
Description: Relative stability studies were conducted at 25° C. to determine thermodynamic crystal stability at various water activity levels ranging from aw=0 to aw=0.94. Both non-solvated forms (Forms A and D) and hydrate forms (Form C and E) were ripened during the study.
Saturated suspensions of the Formula (I) were prepared by stirring excess API in the specified solvent system. The suspension was stirred overnight at 25° C. A clarifying filtration was performed and the filtrate was added to a 2 mL vial containing seeds or small quantities of the relevant forms. The resulting suspensions were stirred at 25° C. for seven days. The solids were isolated, air-dried for 45 minutes, and analyzed by FTIR.

[2] = Solubility study, visually estimated by dosing solvent aliquots into 10.0 mg API; conditions: thermodynamic from solid
Description: Solubility was assessed in an array of diverse solvents in order to facilitate the selection of solvent systems and corresponding dosing strategies for the subsequent crystal-form screening experiments. The solubility of Form A of Formula (I) was visually estimated in 12 solvents at RT, and if applicable, at 40° C. by dosing small aliquots of the solvent into a fixed amount of the API (10.0 mg) until the dissolution point or a maximum volume of 1.8 mL was reached.

[3] = Particle size distribution after jet milling, laser diffraction dry particle size analyzer; conditions: crystalline Form A after fluidized bed opposed jet milling
Description: 21.98 kg of crystalline Form A Formula (I) was processed in a fluidized bed opposed jet mill (Model number 100AFG; Hosokawa Micron) at a feed rate of 8 kg/h under nitrogen at 0.6 MPa and 15,000 rpm. After milling, 20.9 kg ([…]) was collected and analyzed by laser diffraction dry particle size analyzer (HELOS&RODOS).

Crystal form remaining after the ripening study ([1]; all solvent systems, 25° C., seven days, FTIR): the only crystal form remaining
Relative stability among crystalline forms of Formula (I) ([1]; confirmed in ripening studies): the most stable crystalline form
solubility ([2]; organic solvent or mixture, DCM, 40° C., read-out: Solubility at 40° C.): < 6000 µg/mL
solubility ([2]; organic solvent or mixture, DCM, RT, read-out: Solubility at RT): < 6000 µg/mL
solubility ([2]; organic solvent or mixture, EtOAc, 40° C., read-out: Solubility at 40° C.): < 6000 µg/mL
solubility ([2]; organic solvent or mixture, EtOAc, RT, read-out: Solubility at RT): < 6000 µg/mL
solubility ([2]; organic solvent or mixture, IPA, 40° C., read-out: Solubility at 40° C.): < 6000 µg/mL
solubility ([2]; organic solvent or mixture, IPA, RT, read-out: Solubility at RT): < 6000 µg/mL
solubility ([2]; organic solvent or mixture, IPA:water (9:1), 40° C., read-out: Solubility at 40° C.): < 6000 µg/mL
solubility ([2]; organic solvent or mixture, IPA:water (9:1), RT, read-out: Solubility at RT): < 6000 µg/mL
solubility ([2]; organic solvent or mixture, IPE, 40° C., read-out: Solubility at 40° C.): < 6000 µg/mL
solubility ([2]; organic solvent or mixture, IPE, RT, read-out: Solubility at RT): < 6000 µg/mL
solubility ([2]; organic solvent or mixture, MTBE, 40° C., read-out: Solubility at 40° C.): < 6000 µg/mL
solubility ([2]; organic solvent or mixture, MTBE, RT, read-out: Solubility at RT): < 6000 µg/mL
solubility ([2]; organic solvent or mixture, MeCN, 40° C., read-out: Solubility at 40° C.): < 6000 µg/mL
solubility ([2]; organic solvent or mixture, MeCN, RT, read-out: Solubility at RT): < 6000 µg/mL
solubility ([2]; organic solvent or mixture, MeOH, 40° C., read-out: Solubility at 40° C.): < 7000 µg/mL
solubility ([2]; organic solvent or mixture, MeOH, RT, read-out: Solubility at RT): < 7000 µg/mL
solubility ([2]; organic solvent or mixture, THF, 40° C., read-out: Solubility at 40° C.): < 6000 µg/mL
solubility ([2]; organic solvent or mixture, THF, RT, read-out: Solubility at RT): < 6000 µg/mL
solubility ([2]; organic solvent or mixture, Toluene, 40° C., read-out: Solubility at 40° C.): < 7000 µg/mL
solubility ([2]; organic solvent or mixture, Toluene, RT, read-out: Solubility at RT): < 7000 µg/mL
solubility ([2]; Water, 40° C., read-out: Solubility at 40° C.): < 6000 µg/mL
solubility ([2]; Water, RT, read-out: Solubility at RT): < 6000 µg/mL
Structure (SMILES): O=C(O)c1nc2ccccc2n([C@H]2C[C@H]3CCC[C@@H](C2)N3C2CC3CCCC(C3)C2)c1=O (stereo partly shown) [Form A]

D10 [3]: 0.63 μm
D30 [3]: 1.36 μm
D50 [3]: 2.29 μm
D70 [3]: 3.57 μm
D90 [3]: 5.8 μm
solubility ([2]; all solvents of Table 3 other than DMSO, organic solvent or mixture, read-out: Solubility (low) in all other solvents evaluated): ≤ 7000 µg/mL
solubility ([2]; organic solvent or mixture, DMSO, RT, read-out: Solubility at RT): 21000 to 52000 µg/mL
Structure (SMILES): O=C(O)c1nc2ccccc2n([C@H]2C[C@H]3CCC[C@@H](C2)N3C2CC3CCCC(C3)C2)c1=O (stereo partly shown) [Formula (I)]
